Series [1] has as its target T1, full-length recombinant rat vitamin D receptor (Rattus norvegicus, UniProt P13053).
T1 construct: Full-length recombinant rat receptor was expressed in E. coli; His tag (C); made in house; host or cells: E. coli BL21(DE3) Codon Plus RIL
T1 sequence (P13053 1-423): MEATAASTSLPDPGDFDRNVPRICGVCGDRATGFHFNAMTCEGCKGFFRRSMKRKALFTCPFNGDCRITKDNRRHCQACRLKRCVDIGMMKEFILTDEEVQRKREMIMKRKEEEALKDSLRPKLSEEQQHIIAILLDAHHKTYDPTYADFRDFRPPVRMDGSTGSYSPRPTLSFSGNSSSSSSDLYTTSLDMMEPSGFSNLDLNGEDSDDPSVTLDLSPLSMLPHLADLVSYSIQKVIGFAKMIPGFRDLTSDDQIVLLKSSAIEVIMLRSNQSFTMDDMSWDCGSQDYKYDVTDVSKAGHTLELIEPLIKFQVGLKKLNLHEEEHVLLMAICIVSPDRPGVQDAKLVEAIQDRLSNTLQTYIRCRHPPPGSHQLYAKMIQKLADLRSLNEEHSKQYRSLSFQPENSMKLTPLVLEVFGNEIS
Nature of the series: Vitamin D receptor binding, competition with [3H]-1,25-(OH)2-D3. How it is done: Full-length recombinant rat receptor was expressed in E. coli BL21(DE3) Codon Plus RIL cells and purified to homogeneity using two different column chromatography systems. The first system was a nickel affinity resin that utilizes the C-terminal histidine tag on this protein. The protein that was eluted from this resin was further purified using ion exchange chromatography (S-Sepharose Fast Flow). Aliquots of the purified protein were quick frozen in liquid nitrogen and stored at −80° C. until use. For use in binding assays, the protein was diluted in TEDK50 (50 mM Tris, 1.5 mM EDTA, pH 7.4, 5 mM DTT, 150 mM KCl) with 0.1% Chaps detergent. The receptor protein and ligand concentration was optimized such that no more than 20% of the added radiolabeled ligand was bound to the receptor.
Unlabeled ligands were dissolved in ethanol and the concentrations determined using UV spectrophotometry (1,25(OH)2D3: molar extinction coefficient=18,200 and λmax=265 nm; Analogs: molar extinction coefficient=42,000 and λmax=252 nm). Radiolabeled ligand (^3H-1,25(OH)2D3, ˜159 Ci/mmole) was added in ethanol at a final concentration of 1 nM.
Radiolabeled and unlabeled ligands were added to 100 mcl of the diluted protein at a final ethanol concentration of ≦10%, mixed and incubated overnight on ice to reach binding equilibrium. […] Total binding was determined from the tubes containing only radiolabeled ligand.

The nature of series [2]: Intestinal calcium transport (everted gut sac method). In kind it is in vivo, rat. As to conditions: rats, ip; even at 100 times the dose of 1α,25-dihydroxyvitamin D3; FIG. 5. The procedure:
(§1) Male, weanling Sprague-Dawley rats were placed on Diet 11 (0.47% Ca) diet +AEK for one week followed by Diet 11 (0.02% Ca) +AEK for 3 weeks. The rats were then switched to a diet containing 0.47% Ca for one week followed by two weeks on a diet containing 0.02% Ca. Dose administration began during the last week on 0.02% calcium diet. Four consecutive ip doses were given approximately 24 hours apart. Twenty-four hours after the last dose, blood was collected from the severed neck and the concentration of serum calcium determined as a measure of bone calcium mobilization. The first 10 cm of the intestine was also collected for intestinal calcium transport analysis using the everted gut sac method.

The test system of series [3] is 24-hydroxylase (24Ohase) gene promoter in ROS 17/2.8 (bone) cells. Kind of series: In vitro transcription assay (24-hydroxylase promoter luciferase reporter). In kind it is cell-based. The conditions noted are these: stably transfected Ros17/2.8 (bone) cells; FIG. 3. The procedure: Transcription activity was measured in ROS 17/2.8 (bone) cells that were stably transfected with a 24-hydroxylase (24Ohase) gene promoter upstream of a luciferase reporter gene (Arbour et al., 1998). Cells were given a range of doses. Sixteen hours after dosing the cells were harvested and luciferase activities were measured using a luminometer. RLU=relative luciferase units.

The nature of series [4]: Serum calcium in adult rats (hypercalcemia). It is filed as in vivo, rat. The conditions noted are these: ip, FIG. 6. How it is done:
(§2) Adult, female Sprague-Dawley rats were obtained from Harlan (Madison, Wis.).
(§3) Animals were randomly assigned to treatment groups (5 animals/group). All doses were administered intraperitoneally in 100 microliters of propylene glycol. Four to seven consecutive doses were given approximately 24 hours apart. Dosing was initiated after the animals had been allowed to acclimate for at least one week.
(§4) Both control and test articles were administered by intraperitoneal injection in 100 microliters for 4-7 consecutive days spaced approximately 24 hours apart. 1,25(OH)2D3 was given for 4 consecutive days, whereas, the test drugs were given for 7 consecutive days.
Twenty-four hours after the final dose, approximately 1 ml of blood was collected from the tail artery of each experimental animal. The blood was allowed to coagulate at room temperature and then centrifuged at 3000×g for 15 minutes. The serum was transferred to a polypropylene tube and stored frozen at −20° C. The level of calcium was determined by diluting the serum into 0.1% lanthum chloride and measuring the absorbance on an atomic absorption spectrophotometer (Perkin Elmer Model 3110, Shelton, Conn.).

In a further series the test system is HL-60 cells. Nature of the series: HL-60 differentiation (nitro blue tetrazolium reduction). In kind it is cell-based, human. The procedure: The study drugs were dissolved in ethanol and the concentrations determined using UV spectrophotometry. Serial dilutions were prepared so that a range of drug concentrations could be tested without changing the final concentration of ethanol (≦0.2%) present in the cell cultures.
Human promyelocytic leukemia (HL60) cells were grown in RPMI-1640 medium containing 10% fetal bovine serum. The cells were incubated at 37° C. in the presence of 5% CO2.
HL60 cells were plated at 1.2×10^5 cells/ml. Eighteen hours after plating, cells in duplicate were treated with drug. Four days later, the cells were harvested and a nitro blue tetrazolium reduction assay was performed (Collins et al., 1979; J. Exp. Med. 149:969-974). The percentage of differentiated cells was determined by counting a total of 200 cells and recording the number that contained intracellular black-blue formazan deposits. Verification of differentiation to monocytic cells was determined by measuring phagocytic activity (data not shown).

Series [5] in a line: PTH suppression in adult rats. The conditions noted are these: normal rats, ip, 7 consecutive days; FIG. 7. In kind it is in vivo, rat. The procedure: as §2, §3, §4
Twenty-four hours after the final dose, blood was collected from the tail artery and the concentration of bioactive serum PTH was measured using the rat BioActive Intact PTH ELISA Kit from Immutopics, Inc. (San Clemente, Calif.).

Series [6] can be described thus: Bone calcium mobilization (serum calcium). In kind it is in vivo, rat. The conditions noted are these: rats, ip; even at 100 times the dose of 1α,25-dihydroxyvitamin D3; FIG. 4. How it is done:
as §1

“Also recorded” adds a separate entry of the source.

Data on one compound can be found in patent US20060135800A1, “2-Methylene-19,21-dinor-1alpha-hydroxy-bishomopregnacalciferol” (Wisconsin Alumni Research Foundation, priority 2004, published 2006).

In the case of `C=C1[C@H](O)CC(=C/C=C2\CCC[C@]3(C)C(CCC)CC[C@@H]23)C[C@H]1O` (stereo in doubt) [2-methylene-19,21-dinor-1α-hydroxy-bishomopregnacalciferol], the “binding to the recombinant vitamin D receptor, times less active than 1α,25-dihydroxyvitamin D3” value in series [1] (relative to 1α,25-dihydroxyvitamin D3, FIG. 1) was “about 5 times”. The “binding to vitamin D receptors (in words)” value in series [1] (summary statement) is on record as “relatively high binding”. The “calcemic activity measured by intestinal calcium transport” value in series [2] is given as “very low intestinal calcium transport activity; also recorded: no calcemic activity”. In addition, the “stimulating transcription of a reporter gene” value in series [3] is given as “active”. The “raising serum calcium concentrations” value in series [4] is given as “absence of raising serum calcium concentrations”. Moreover, the “inducing differentiation of HL-60 cells, times less active than 1α,25-dihydroxyvitamin D3” value in the series with HL-60 cells (relative to 1α,25-dihydroxyvitamin D3, FIG. 2) is on record as “about 15 times”. Besides, the “cell differentiation activity (in words)” value in the series on HL-60 cells (summary statement) is recorded as “relatively high cell differentiation activity”. In addition, the “suppressing parathyroid hormone levels” value in series [5] was “significant activity”. Moreover, the “calcemic activity measured by bone calcium mobilization” value in series [6] was “very low ability to mobilize calcium from bone; also recorded: no calcemic activity”.
